Experiments:
Assay type in all cases: in vivo
[1] = Sensory evaluation of CC-00401 and CC-00403 vs 7% Sucrose (trained sensory panel taste test, mock beverage samples at 4° C.); set-up: Sweetness In Mouth / Sweetness Overall Max / Bitterness In Mouth / Bitterness Overall Max: scale not given here; conditions: mean ± standard deviation, test sweeteners 400 ppm in water, reference 7% sucrose
Procedure: (§1) The following mock beverage samples were prepared:
(§2) A trained sensory panel conducted the taste test. Samples were served at approximately 4° C. Panelists were instructed to take 1 sip of the sample, hold in mouth for 5 seconds, expectorate, and rate the given attributes. A 5 minute break was placed between each sample and panelists were instructed to cleanse their palates with at least 1 bite of unsalted cracker and 2 sips of filtered water. Samples were randomized within each session for each panelist.
(§3) The following attributes were evaluated: • Sweet taste intensity: maximum level of sweetness in mouth during 5 seconds • Bitter taste intensity: maximum level of bitterness in mouth during 5 seconds • Overall maximum sweet intensity: maximum sweet intensity experienced from the time the sip is taken up to 1 minute • Overall maximum bitter intensity: maximum sweet intensity experienced from the time the sip is taken up to 1 minute • Sweet linger intensity: sweet intensity 1 minute after tasting the sample • Bitter aftertaste intensity: bitter intensity 1 minute after tasting the sample
(§4) An ANOVA, with Sample as fixed effects and Panelist as random effects was used to determine significance between the samples for each attribute at the 90% and 95% Confidence Level, two-tailed. Fishers LSD was used to determine significant differences between mean scores.

[2] = Sensory evaluation of CC-00436 vs 5% Sucrose (trained sensory panel taste test, mock beverages at 4° C.); set-up: Sweetness In Mouth / Sweetness Overall Max / Bitterness In Mouth / Bitterness Overall Max: scale not given here; conditions: mean ± standard deviation, CC-00436 400 ppm in water, reference 5% sucrose
Procedure: The following mock beverages were prepared: A trained sensory panel conducted the taste test. Samples were served at approximately 4° C. Panelists were instructed to take 1 sip of the sample, hold in mouth for 5 seconds, expectorate, and rate the given attributes. A 5 minute break was placed between each sample and panelists were instructed to cleanse their palates with at least 1 bite of unsalted cracker and 2 sips of filtered water. Samples were randomized within each session for each panelist. The following attributes were evaluated: • Sweet taste intensity: maximum level of sweetness in mouth during 5 seconds • Bitter taste intensity: maximum level of bitterness in mouth during 5 seconds • Overall maximum sweet intensity: maximum sweet intensity experienced from the time the sip is taken up to 1 minute • Overall maximum bitter intensity: maximum sweet intensity experienced from the time the sip is taken up to 1 minute • Sweet linger intensity: sweet intensity 1 minute after tasting the sample • Bitter aftertaste intensity: bitter intensity 1 minute after tasting the sample

[3] = Sensory evaluation of CC-00367 and CC-00371 vs Reb M 95% (trained sensory panel taste test, mock beverage samples, 400 ppm in water at 4° C.); conditions: mean panel score; for Bitter Aftertaste Intensity: bitter intensity 1 minute after tasting; for Overall Max Sweetness: from the time the sip is taken up to 1 minute; for Bitter Intensity In Mouth: maximum level of bitterness in mouth during 5 seconds; for Sweet Intensity In Mouth: maximum level of sweetness in mouth during 5 seconds; for Sweet Linger Intensity: sweet intensity 1 minute after tasting
Procedure: FIG. 1: Taste attribute comparison of CC-00371 and CC-00367 compared to Reb M 95% (all at 400 ppm) in water at 4° C.
as §1, §2, §3, §4
The results are shown in Table 75 and depicted in FIG. 1: […]

[4] = as above; conditions: mean panel score, from the time the sip is taken up to 1 minute

| Molecule | Bitterness In Mouth [1] | Bitterness Linger (~60 sec) [1] | Bitterness Overall Max [1] | Sweetness In Mouth [1] | Sweetness Linger (~60 sec) [1] | Sweetness Overall Max [1] | Bitterness In Mouth [2] | Bitterness Linger (~60 sec) [2] | Bitterness Overall Max [2] | Sweetness In Mouth [2] | Sweetness Linger (~60 sec) [2] | Sweetness Overall Max [2] | Bitter Aftertaste Intensity [3] | Overall Max Sweetness [3] | Bitter Intensity In Mouth [3] | Sweet Intensity In Mouth [3] | Sweet Linger Intensity [3] | Overall Max Bitterness** [4] |
| --- | --- | --- | --- | --- | --- | --- | --- | --- | --- | --- | --- | --- | --- | --- | --- | --- | --- | --- |
| C[C@H](CC[C@@H](O[C@@H]1O[C@H](CO[C@@H]2O[C@H](CO[C@@H]3O[C@H](CO)[C@@H](O)[C@H](O)[C@H]3O)[C@@H](O)[C@H](O)[C@H]2O)[C@@H](O)[C@H](O)[C@H]1O[C@@H]1O[C@H](CO)[C@@H](O)[C@H](O)[C@H]1O)C(C)(C)O)[C@H]1CC[C@@]2(C)[C@@H]3CC=C4[C@@H](CC[C@H](O[C@@H]5O[C@H](CO[C@@H]6O[C@H](CO)[C@@H](O)[C@H](O)[C@H]6O)[C@@H](O)[C@H](O)[C@H]5O)C4(C)C)[C@]3(C)[C@H](O)C[C@]12C [CC-00403] | 2.6 ± 3.0 | 2.2 ± 3.4 | 5.0 ± 3.4 | 6.3 ± 1.4 | 3.1 ± 2.5 | 7.0 ± 1.5 | – | – | – | – | – | – | – | – | – | – | – | – |
| OC[C@H]1O[C@@](CO)(O[C@H]2O[C@H](CO)[C@@H](O)[C@H](O)[C@H]2O)[C@@H](O)[C@@H]1O [Sucrose, sucrose, reference compound] | 2.3 ± 2.3 | 0.8 ± 1.1 | 2.8 ± 2.1 | 7.2 ± 0.9 | 2.1 ± 1.8 | 7.4 ± 0.8 | 0.15 ± 0.2 | 0.1 ± 0.1 | 0.3 ± 0.3 | 4.3 ± 2.1 | 1.6 ± 1.8 | 4.5 ± 1.9 | – | – | – | – | – | – |
| C[C@H](CC[C@@H](O[C@@H]1OC(CO[C@@H]2OC(CO)[C@@H](O)[C@H](O)C2O)C(O)[C@@H](O)C1O[C@@H]1OC(CO)[C@@H](O[C@@H]2OC(CO)[C@@H](O)[C@H](O)C2O)[C@H](O)C1O)C(C)(C)O)[C@H]1CC[C@@]2(C)C3CC=C4[C@@H](CC[C@H](O[C@@H]5OC(CO[C@@H]6OC(CO)[C@@H](O)[C@H](O)C6O)[C@@H](O)[C@H](O)C5O)C4(C)C)[C@]3(C)[C@H](O)C[C@]12C (stereo partly drawn) [CC-00367, mogro-3-O-[β-D-glucopyranosyl (1→6)-β-D-glucopyranoside]-24-O-{[(β-D-glucopyranosyl-(1→4))-β-D-glucopyranosyl-(1→2)]-[β-D-glucopyranosyl-(1→6)]-β-D-glucopyranoside}] | – | – | – | – | – | – | – | – | – | – | – | – | 1.4 B | 4.9 B | 1.3 B | 3.8 B | 2.6 B | 2.2 B |
| mogro-3-O-[β-D-glucopyranosyl (1→6)-β-D-glucopyranoside]-24-O-{[β-D-glucopyranosyl-(1→2)]-[(β-D-glucopyranosyl-(1β3))-β-D-glucopyranosyl-(1β6)]-β-D-glucopyranoside} [CC-00371] | – | – | – | – | – | – | – | – | – | – | – | – | 1.5 B | 9.3 A | 0.9 B | 7.5 A | 5.8 A | 2.1 B |
| C[C@H](CC[C@@H](O[C@@H]1O[C@H](CO[C@@H]2O[C@H](CO)[C@@H](O)[C@H](O)[C@H]2O)[C@@H](O)[C@H](O)[C@H]1O[C@@H]1O[C@H](CO)[C@@H](O)[C@H](O)[C@H]1O)C(C)(C)O)[C@H]1CC[C@@]2(C)[C@@H]3CC=C4[C@@H](CC[C@H](O[C@@H]5O[C@H](CO[C@@H]6O[C@H](CO)[C@@H](O)[C@H](O)[C@H]6O)[C@@H](O)[C@H](O)[C@H]5O)C4(C)C)[C@]3(C)[C@H](O)C[C@]12C [Mog V] | – | – | – | – | – | – | – | – | – | – | – | – | 0.4 | 8.5 | 0.5 | 7.0 | 3.5 | 1.1 |
| C[C@H](CC[C@@H](O[C@@H]1OC(CO[C@@H]2OC(CO)[C@@H](O)[C@H](O)C2O)C(O)[C@@H](O)C1O[C@@H]1OC(CO)[C@@H](O)[C@H](O)C1O)C(C)(C)O)[C@H]1CC[C@@]2(C)C3CC=C4[C@@H](CC[C@H](O[C@@H]5OC(CO[C@@H]6OC(CO[C@H]7OC(CO)[C@@H](O)[C@H](O)C7O)[C@@H](O)[C@H](O)C6O)[C@@H](O)[C@H](O)C5O)C4(C)C)[C@]3(C)[C@H](O)C[C@]12C (stereo partly drawn) [CC-00436, mogro-3-O-[α-D-glucopyranosyl-(1→6)-β-D-glucopyranosyl (1→6)-β-D-glucopyranoside]-24-O-{[β-D-glucopyranosyl-(1→2)]-[β-D-glucopyranosyl-(1→6)]-β-D-glucopyranoside}] | – | – | – | – | – | – | 1.5 ± 1.9 | 0.7 ± 0.8 | 2.1 ± 1.7 | 5.2 ± 2.1 | 2.9 ± 2.5 | 5.7 ± 2.1 | – | – | – | – | – | – |
| C=C1C[C@@]23CC[C@H]4[C@@](C)(CCC[C@@]4(C)C(=O)O[C@@H]4O[C@H](CO)[C@@H](O)[C@H](O[C@@H]5O[C@H](CO)[C@@H](O)[C@H](O)[C@H]5O)[C@H]4O[C@@H]4O[C@H](CO)[C@@H](O)[C@H](O)[C@H]4O)[C@@H]2CC[C@]1(O[C@@H]1O[C@H](CO)[C@@H](O)[C@H](O[C@@H]2O[C@H](CO)[C@@H](O)[C@H](O)[C@H]2O)[C@H]1O[C@@H]1O[C@H](CO)[C@@H](O)[C@H](O)[C@H]1O)C3 [Reb M 95%, rebaudioside M, reference compound] | – | – | – | – | – | – | – | – | – | – | – | – | 1.7 B | 9.2 A | 1.0 B | 8.0 A | 5.3 A | 2.0 B |

Source: patent US12281139B2, “Mogrosides, methods of obtaining the same, and uses” (The Coca-Cola Company, priority 2018, dated 2025)
